This is an account of results in ChEMBL document CHEMBL1145724, “Cyclic amine sulfonamides as linkers in the design and synthesis of novel human beta(3) adrenergic receptor agonists” (Bioorg Med Chem Lett, 2003).

The target in experiment [1] is T1, Beta-1 adrenergic receptor (Homo sapiens, UniProt P08588). Kind of experiment: Intrinsic activity against cloned human beta1-AR was measured as fractions of the maximal response.
Target sequence in this assay (P08588 whole entry, looked up): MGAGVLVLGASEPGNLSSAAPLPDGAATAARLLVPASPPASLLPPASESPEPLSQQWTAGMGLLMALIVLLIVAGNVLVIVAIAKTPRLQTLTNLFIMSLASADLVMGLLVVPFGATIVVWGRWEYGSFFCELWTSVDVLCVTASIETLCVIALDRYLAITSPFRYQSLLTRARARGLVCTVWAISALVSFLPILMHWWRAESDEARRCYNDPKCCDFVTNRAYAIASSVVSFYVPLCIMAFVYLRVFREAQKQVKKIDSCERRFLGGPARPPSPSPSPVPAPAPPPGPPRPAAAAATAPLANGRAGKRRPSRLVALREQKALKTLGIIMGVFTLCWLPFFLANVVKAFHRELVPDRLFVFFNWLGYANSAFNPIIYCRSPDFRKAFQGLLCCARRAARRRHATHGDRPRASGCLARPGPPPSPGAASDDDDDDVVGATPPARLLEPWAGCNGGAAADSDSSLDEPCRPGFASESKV
For experiment [2], the target named is T2, Beta-3 adrenergic receptor (Homo sapiens, UniProt P13945). Kind of experiment: Intrinsic activity against cloned human beta3-AR was measured as fractions of the maximal response.
Target sequence in this assay (P13945 whole entry, looked up): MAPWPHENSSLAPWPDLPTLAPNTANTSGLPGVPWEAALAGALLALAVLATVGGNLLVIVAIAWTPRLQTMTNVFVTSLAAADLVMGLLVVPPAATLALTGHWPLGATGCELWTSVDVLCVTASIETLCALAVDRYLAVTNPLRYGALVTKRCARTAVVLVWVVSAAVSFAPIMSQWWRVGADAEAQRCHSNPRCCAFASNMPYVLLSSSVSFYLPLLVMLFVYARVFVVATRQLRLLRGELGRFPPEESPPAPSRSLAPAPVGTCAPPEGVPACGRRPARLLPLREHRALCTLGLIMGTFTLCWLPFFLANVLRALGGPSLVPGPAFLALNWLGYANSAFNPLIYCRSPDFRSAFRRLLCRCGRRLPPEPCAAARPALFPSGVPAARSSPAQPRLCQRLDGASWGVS
For experiment [3], the target named is T2, Beta-3 adrenergic receptor. The experiment in a line: Agonistic activity against cloned human beta3-AR (beta-3-adrenergic receptor) in CHO cells. The experiment is classed as functional, cell-based.
Target sequence in this assay (P13945 whole entry): as the sequence (P13945 whole entry, looked up) above
The target of experiment [4] is Beta-2 adrenergic receptor (Homo sapiens, UniProt P07550). Kind of experiment: Agonistic activity against cloned human […] (beta-2-adrenergic receptor) in CHO cells. Format: functional, cell-based.
Chain of Beta-2 adrenergic receptor (P07550 whole entry): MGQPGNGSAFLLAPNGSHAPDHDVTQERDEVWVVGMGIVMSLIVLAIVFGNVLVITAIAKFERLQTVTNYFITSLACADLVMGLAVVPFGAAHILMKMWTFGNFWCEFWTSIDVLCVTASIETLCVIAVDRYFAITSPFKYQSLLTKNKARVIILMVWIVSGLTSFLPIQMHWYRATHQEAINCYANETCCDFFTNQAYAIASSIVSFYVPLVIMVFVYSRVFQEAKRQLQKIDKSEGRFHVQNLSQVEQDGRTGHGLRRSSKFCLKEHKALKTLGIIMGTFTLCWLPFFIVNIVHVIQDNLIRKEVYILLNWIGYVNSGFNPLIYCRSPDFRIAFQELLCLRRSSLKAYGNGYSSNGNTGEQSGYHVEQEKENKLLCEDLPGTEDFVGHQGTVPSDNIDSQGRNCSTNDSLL
The target of experiment [5] is T1, Beta-1 adrenergic receptor. The experiment in a line: Agonistic activity against cloned human beta1-AR (beta-1-adrenergic receptor) in CHO cells. The experiment is classed as functional, cell-based.
Target sequence in this assay (P08588 whole entry): as the sequence (P08588 whole entry, looked up) above

The term EC50 denotes the concentration that produces a half-maximal response. Read a high EC50 as lower potency in that assay.

As for `COc1ccc(S(=O)(=O)N2CCC(NC[C@H](O)COc3cccc4[nH]c(O)nc34)CC2)cc1`, the Intrinsic activity in experiment [1] stood at 0.32; in experiment [2], 0.72.
On to `CCCCCCNC(=O)Nc1ccc(S(=O)(=O)N2CCC(NC[C@H](O)COc3cccc4[nH]c(O)nc34)CC2)cc1`, for which the Intrinsic activity in experiment [2] worked out at 0.74.
In experiment [3], `CCCCOc1ccc(S(=O)(=O)N2CCC(NC[C@H](O)COc3cccc4[nH]c5ccccc5c34)C2)cc1` (stereo not given in full) had an EC50 of over 2000 nM.
With `O=c1[nH]c2cccc(OC[C@@H](O)CNC3CCN(S(=O)(=O)c4cccc5nsnc45)CC3)c2[nH]1`, the EC50 in experiment [3] was 850 nM.
In the case of `CCCCOc1ccc(S(=O)(=O)N2CCC(NC[C@H](O)COc3ccc(O)cc3)CC2)cc1`, the EC50 in experiment [3] is over 2000 nM.
For `COc1ccc(S(=O)(=O)N2CCC(NC[C@H](O)COc3cccc4[nH]c5ccccc5c34)CC2)cc1`, the Intrinsic activity is 0.11 in experiment [1] and 0.88 in experiment [2]. The figures for the EC50 in experiment [4] and in experiment [5] were over 100000 nM and 100000 nM, respectively.
Regarding `CCCCOc1ccc(S(=O)(=O)N2CC(NC[C@H](O)c3ccc(O)cc3)C2)cc1`, the EC50 in experiment [3] is 30 nM; in experiment [4], 920 nM; in experiment [5] it was 1600 nM. The Intrinsic activity in experiment [1] amounted to 0.49; in experiment [2], 0.82.
`CCCCOc1ccc(S(=O)(=O)N2CCC(NC[C@H](O)COc3cccc4[nH]c5ccccc5c34)CC2)cc1`: the Intrinsic activity in experiment [1] came out at 0.04; in experiment [2], 0.74. Also, the EC50 in experiment [4] and in experiment [5] was over 100000 nM in each case.
In experiment [3], `CCC(C)(C)c1ccc(S(=O)(=O)N2CCC(NC[C@H](O)COc3cccc4[nH]c5ccccc5c34)CC2)cc1` showed a 50% effective concentration (EC50) of 920 nM. Besides, the Intrinsic activity in experiment [2] is 1.
Take `CS(=O)(=O)Nc1cc([C@@H](O)CNC2CCN(S(=O)(=O)c3ccc4oc5ccccc5c4c3)CC2)ccc1O`: in experiment [3], the midpoint of the response, the EC50, lay at 120 nM. In addition, the Intrinsic activity in experiment [2] is 0.88.
The compound `CCCCOc1ccc(S(=O)(=O)N2CC(NC[C@H](O)COc3cccc4[nH]c5ccccc5c34)C2)cc1` displayed an EC50 in experiment [3] of over 2000 nM.
`CCCCOc1ccc(S(=O)(=O)N2CC(NC[C@H](O)c3ccc(O)c(NS(C)(=O)=O)c3)C2)cc1` registered an EC50 in experiment [3] of 1100 nM. Also, in experiment [2], the Intrinsic activity was determined as 0.78.
`COc1ccc(S(=O)(=O)N2CCC(NC[C@H](O)COc3cccc4[nH]c5ccccc5c34)CC2)cc1OC`: the Intrinsic activity in experiment [1] amounted to 0.14; in experiment [2], 1.2. The EC50 in experiment [4] and in experiment [5] was over 100000 nM throughout.
`O=c1[nH]c2cccc(OC[C@@H](O)CNC3CCN(S(=O)(=O)c4ccc5oc6ccccc6c5c4)CC3)c2[nH]1` came in with an EC50 in experiment [3] of 70 nM.
With `COc1ccc(S(=O)(=O)N2CCC(NC[C@H](O)COc3cccc4[nH]c(=O)[nH]c34)CC2)cc1OC`, the EC50 was 90 nM in experiment [3], over 100000 nM in experiment [4] and over 100000 nM in experiment [5].
Turning to `COc1ccc(S(=O)(=O)N2CCC(NC[C@H](O)COc3cccc4[nH]c(=O)[nH]c34)CC2)cc1`, the EC50 in experiment [3] is 120 nM; in experiment [4], over 100000 nM; in experiment [5], over 100000 nM.
As to `CCCCCCNC(=O)Nc1ccc(S(=O)(=O)N2CCC(NC[C@H](O)c3ccc(O)c(NS(C)(=O)=O)c3)CC2)cc1`, the figures for the EC50 in experiment [3], in experiment [4] and in experiment [5] were 5 nM, 920 nM and 12 nM, respectively. Besides, the Intrinsic activity in experiment [1] came to 0.66; in experiment [2] it was 0.82.
With `COc1ccc(S(=O)(=O)N2CCC(NC[C@H](O)COc3ccc(O)cc3)CC2)cc1`, the EC50 in experiment [3] is 55 nM; in experiment [4], over 100000 nM; in experiment [5] it was 10300 nM. Also, the Intrinsic activity in experiment [1] worked out at 0.46; in experiment [2] it was 0.74.
With `CCCCCCNC(=O)Nc1ccc(S(=O)(=O)N2CCC(NC[C@H](O)COc3cccc4[nH]c(=O)[nH]c34)CC2)cc1`, the EC50 in experiment [3] amounted to 36 nM.
The same measure, in the same setting: in the case of `CCCCCCNC(=O)Nc1ccc(S(=O)(=O)N2CCC(NC[C@H](O)COc3ccc(O)cc3)CC2)cc1` it was over 2000 nM.
`COc1ccc(S(=O)(=O)N2CCC(NC[C@H](O)COc3cccc4[nH]c(O)nc34)CC2)cc1OC`: the figures for the Intrinsic activity in experiment [1] and in experiment [2] were 0.33 and 0.87, respectively.
For the compound `O=S(=O)(c1cccc2nsnc12)N1CCC(NC[C@H](O)COc2cccc3[nH]c(O)nc23)CC1`, in experiment [2], the Intrinsic activity amounted to 0.75.
`O=S(=O)(c1ccc2oc3ccccc3c2c1)N1CCC(NC[C@H](O)COc2cccc3[nH]c(O)nc23)CC1` came in with an Intrinsic activity in experiment [2] of 0.64.
Consider `CCCCOc1ccc(S(=O)(=O)N2CCC(NC[C@H](O)c3ccc(O)c(NS(C)(=O)=O)c3)C2)cc1` (stereo not given in full), for which, in experiment [3], a half-maximal effect (EC50) was put at 360 nM. Moreover, the Intrinsic activity in experiment [2] stood at 0.79.
